# Measured values: PubChem BioAssay (NCI)
#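 96-well plates; 48 h exposure; 5 concentrations. Endpoints by linear interpolation between flanking doses. Not reached: highest tested concentration assigned. GI50 marks 50% less growth. At the TGI there is no net growth.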
# How the values were obtained:
# Assay in all cases: DTP human tumour cell line panel, 48 h
# [1] = tested on: A498 renal
# [2] = tested on: SNB-75 CNS
# [3] = tested on: DU-145 prostate
# [4] = tested on: K-562 leukemia
# [5] = tested on: HS 578T breast
# [6] = tested on: HOP-92 NSCLC
# [7] = tested on: UO-31 renal
# [8] = tested on: CCRF-CEM leukemia
# [9] = tested on: SR leukemia
# [10] = tested on: RXF 393 renal
# [11] = tested on: U251 CNS
# [12] = tested on: SN12C renal
# [13] = tested on: OVCAR-4 ovarian
# [14] = tested on: ACHN renal
# [15] = tested on: 786-0 renal
# [16] = tested on: SK-OV-3 ovarian
# [17] = tested on: NCI-H226 lung
# [18] = tested on: A549 NSCLC
# [19] = tested on: HOP-62 NSCLC
# [20] = tested on: MDA-MB-231 breast
# [21] = tested on: SW-620 colon
# [22] = tested on: MOLT-4 leukemia
# [23] = tested on: RPMI-8226 leukemia
# [24] = tested on: UACC-62 melanoma
# [25] = tested on: TK-10 renal
# [26] = tested on: HCT-116 colon
# [27] = tested on: OVCAR-8 ovarian
# [28] = tested on: MDA-MB-435
# [29] = tested on: MALME-3M melanoma
# [30] = tested on: EKVX NSCLC
# [31] = tested on: KM12 colon
# [32] = tested on: MCF7 breast
# [33] = tested on: HCT-15 colon
# [34] = tested on: HL-60(TB) leukemia
# [35] = tested on: SF-295 CNS
# [36] = tested on: HT29 colon
# [37] = tested on: HCC-2998 colon
# [38] = tested on: IGROV1 ovarian
# [39] = tested on: NCI-H460 lung
# [40] = tested on: SK-MEL-5 melanoma
# [41] = tested on: T-47D breast
# [42] = tested on: COLO 205 colon
# [43] = tested on: NCI-H23 lung
# [44] = tested on: OVCAR-5 ovarian
# [45] = tested on: UACC-257 melanoma
# [46] = tested on: SF-539 CNS
# [47] = tested on: SK-MEL-28 melanoma
# [48] = tested on: M14 melanoma
# [49] = tested on: SNB-19 CNS
# [50] = tested on: SF-268 CNS
# [51] = tested on: NCI/ADR-RES ovarian
# [52] = tested on: CAKI-1 renal
# [53] = tested on: OVCAR-3 ovarian
# [54] = tested on: BT-549 breast
# [55] = tested on: LOX IMVI melanoma
# [56] = tested on: SK-MEL-2 melanoma
# [57] = tested on: NCI-H522 lung
smiles,measurement,setting,value
CCOC(=O)c1sc(-c2ccc(OS(=O)(=O)c3ccccc3[N+](=O)[O-])c(C=O)c2)nc1C,GI50,[1],0.532 µM
same,TGI,[1],7.57 µM
same,GI50,[2],1.37 µM
same,TGI,[2],8.44 µM
same,GI50,[3],3.24 µM
same,TGI,[3],> 100 µM
same,GI50,[4],1.61 µM
same,TGI,[4],> 100 µM
same,GI50,[5],2.99 µM
same,TGI,[5],> 100 µM
same,GI50,[6],1.92 µM
same,TGI,[6],5.5 µM
same,GI50,[7],2.36 µM
same,TGI,[7],> 100 µM
same,GI50,[8],1.83 µM
same,TGI,[8],4.49 µM
same,GI50,[9],1.96 µM
same,TGI,[9],> 100 µM
same,GI50,[10],1.62 µM
same,TGI,[10],5.77 µM
O=CNNC(=O)Nc1cccc2ccccc12,TGI,[2],> 100 µM
same,TGI,[3],> 100 µM
same,TGI,[11],> 100 µM
same,TGI,[12],> 100 µM
same,TGI,[13],> 100 µM
same,TGI,[4],> 100 µM
same,TGI,[14],> 100 µM
same,TGI,[15],> 100 µM
same,TGI,[16],> 100 µM
same,TGI,[5],> 100 µM
same,TGI,[17],> 100 µM
same,TGI,[18],> 100 µM
same,TGI,[19],> 100 µM
same,TGI,[20],> 100 µM
same,TGI,[21],> 100 µM
same,TGI,[22],> 100 µM
same,TGI,[23],> 100 µM
same,TGI,[24],> 100 µM
same,TGI,[25],> 100 µM
same,TGI,[26],> 100 µM
same,TGI,[7],> 100 µM
same,TGI,[27],> 100 µM
same,TGI,[28],> 100 µM
same,TGI,[29],> 100 µM
same,TGI,[30],> 100 µM
same,TGI,[31],> 100 µM
same,TGI,[32],> 100 µM
same,TGI,[33],> 100 µM
same,TGI,[34],> 100 µM
same,TGI,[35],> 100 µM
same,TGI,[8],> 100 µM
same,TGI,[36],> 100 µM
same,TGI,[37],> 100 µM
same,TGI,[38],> 100 µM
same,TGI,[39],> 100 µM
same,TGI,[40],> 100 µM
same,TGI,[41],> 100 µM
same,TGI,[42],> 100 µM
same,TGI,[43],> 100 µM
same,TGI,[9],> 100 µM
same,TGI,[44],> 100 µM
same,TGI,[45],> 100 µM
same,TGI,[46],> 100 µM
same,TGI,[47],> 100 µM
same,TGI,[10],> 100 µM
same,TGI,[48],> 100 µM
same,TGI,[49],> 100 µM
same,TGI,[50],> 100 µM
same,TGI,[51],> 100 µM
Nc1ccccc1C#C/C=C\C#Cc1ccc(OCCCNC(=O)c2cc3ccccc3[nH]2)cc1,GI50,[1],23 µM
same,TGI,[1],48.3 µM
same,GI50,[2],11.2 µM
same,TGI,[2],73.3 µM
same,GI50,[3],35.4 µM
same,TGI,[3],> 100 µM
same,GI50,[11],12.5 µM
same,TGI,[11],25 µM
same,GI50,[12],7.32 µM
same,TGI,[12],39.8 µM
same,GI50,[13],21.4 µM
same,TGI,[13],> 100 µM
same,GI50,[4],16.1 µM
same,TGI,[4],> 100 µM
same,GI50,[14],6.61 µM
same,TGI,[14],40.9 µM
same,GI50,[15],12.6 µM
same,TGI,[15],25.7 µM
same,GI50,[16],4.36 µM
same,TGI,[16],33.1 µM
same,GI50,[5],15.1 µM
same,TGI,[5],> 100 µM
same,GI50,[52],18.1 µM
same,TGI,[52],72 µM
same,GI50,[17],14.4 µM
same,TGI,[17],87.7 µM
same,GI50,[18],11.6 µM
same,TGI,[18],31.3 µM
same,GI50,[19],15.7 µM
same,TGI,[19],35.7 µM
same,GI50,[20],1.93 µM
same,TGI,[20],14.6 µM
same,GI50,[21],> 100 µM
same,TGI,[21],> 100 µM
same,GI50,[22],49.4 µM
same,TGI,[22],> 100 µM
same,GI50,[23],1.01 µM
same,TGI,[23],17.6 µM
same,GI50,[24],4.11 µM
same,TGI,[24],> 100 µM
same,GI50,[25],17.3 µM
same,TGI,[25],53.5 µM
same,GI50,[26],12.4 µM
same,TGI,[26],40.6 µM
same,GI50,[6],14.4 µM
same,TGI,[6],37.5 µM
same,GI50,[7],41.7 µM
same,TGI,[7],> 100 µM
same,GI50,[27],42.4 µM
same,TGI,[27],> 100 µM
same,GI50,[28],20.6 µM
same,TGI,[28],> 100 µM
same,GI50,[53],11.7 µM
same,TGI,[53],95.6 µM
same,GI50,[29],1.08 µM
same,TGI,[29],18.3 µM
same,GI50,[30],16.4 µM
same,TGI,[30],92.7 µM
same,GI50,[31],5.98 µM
same,TGI,[31],> 100 µM
same,GI50,[32],1.26 µM
same,TGI,[32],7.15 µM
same,GI50,[33],> 100 µM
same,TGI,[33],> 100 µM
same,GI50,[35],12.1 µM
same,TGI,[35],47.1 µM
same,GI50,[36],32 µM
same,TGI,[36],> 100 µM
same,GI50,[37],31.5 µM
same,TGI,[37],> 100 µM
same,GI50,[38],25.5 µM
same,TGI,[38],> 100 µM
same,GI50,[39],9.83 µM
same,TGI,[39],> 100 µM
same,GI50,[54],9.23 µM
same,TGI,[54],> 100 µM
same,GI50,[40],2.09 µM
same,TGI,[40],25.7 µM
same,GI50,[42],9.12 µM
same,TGI,[42],> 100 µM
same,GI50,[55],2.77 µM
same,TGI,[55],28.7 µM
same,GI50,[43],7.62 µM
same,TGI,[43],43.6 µM
same,GI50,[9],23.3 µM
same,TGI,[9],99 µM
same,GI50,[44],32.3 µM
same,TGI,[44],> 100 µM
same,GI50,[45],13 µM
same,TGI,[45],53.3 µM
same,GI50,[56],> 100 µM
same,TGI,[56],> 100 µM
same,GI50,[46],18.2 µM
same,TGI,[46],37.5 µM
same,GI50,[47],> 100 µM
same,TGI,[47],> 100 µM
same,GI50,[10],7.15 µM
same,TGI,[10],22 µM
same,GI50,[49],20.6 µM
same,TGI,[49],56.8 µM
same,GI50,[50],2.37 µM
same,TGI,[50],37.4 µM
same,GI50,[51],10.1 µM
same,TGI,[51],> 100 µM
same,GI50,[57],> 100 µM
same,TGI,[57],> 100 µM
